Like-named read-outs stand apart in the source and are kept apart here.
Tests used:
[1] = system: Puccinia triticina; experiment: Wheat Brown Rust fungicidal activity (PUCCRT); assay type: in vivo; details: for pest or weed control at 121.5 g/ha: Low Volume Cereal Activity at 121.5 g/Ha; for pest or weed control at 100 ppm: wheat, high volume
Experimental: All fungicides were evaluated using the aforementioned method for their activity vs. all target diseases, unless stated otherwise. Wheat leaf blotch and brown rust activity were also evaluated using track spray applications, in which case the fungicides were formulated as EC formulations, containing 0.1% Trycol 5941 in the spray solutions. Wheat plants (variety Yuma) were grown from seed in a greenhouse in 50% mineral soil/50% soil-less Metro mix until the first leaf was fully emerged, with 7-10 seedlings per pot. These plants were inoculated with an aqueous spore suspension of Zymoseptoria tritici either prior to or after fungicide treatments. After inoculation the plants were kept in 100% relative humidity (one day in a dark dew chamber followed by two to three days in a lighted dew chamber at 20° C.) to permit spores to germinate and infect the leaf. The plants were then transferred to a greenhouse set at 20° C. for disease to develop. When disease symptoms were fully expressed on the 1st leaves of untreated plants, infection levels were assessed on a scale of 0 to 100 percent disease severity. Percent disease control was calculated using the ratio of disease severity on treated plants relative to untreated plants. Wheat plants (variety Yuma) were grown from seed in a greenhouse in 50% mineral soil/50% soil-less Metro mix until the first leaf was fully emerged, with 7-10 seedlings per pot. These plants were inoculated with an aqueous spore suspension of Puccinia triticina either prior to or after fungicide treatments. […] The plants were then transferred to a greenhouse set at 24° C. for disease to develop. Fungicide formulation, application and disease assessment followed the procedures as described in the Example A.

[2] = system: Zymoseptoria tritici; experiment: Leaf Blotch of Wheat fungicidal activity (SEPTTR); assay type: in vivo; details: for pest or weed control at 121.5 g/ha: Low Volume Cereal Activity at 121.5 g/Ha; for pest or weed control at 100 ppm: wheat, high volume
Experimental: All fungicides were evaluated using the aforementioned method for their activity vs. all target diseases, unless stated otherwise. Wheat leaf blotch and brown rust activity were also evaluated using track spray applications, in which case the fungicides were formulated as EC formulations, containing 0.1% Trycol 5941 in the spray solutions. Wheat plants (variety Yuma) were grown from seed in a greenhouse in 50% mineral soil/50% soil-less Metro mix until the first leaf was fully emerged, with 7-10 seedlings per pot. These plants were inoculated with an aqueous spore suspension of Zymoseptoria tritici either prior to or after fungicide treatments. After inoculation the plants were kept in 100% relative humidity (one day in a dark dew chamber followed by two to three days in a lighted dew chamber at 20° C.) to permit spores to germinate and infect the leaf. The plants were then transferred to a greenhouse set at 20° C. for disease to develop. When disease symptoms were fully expressed on the 1st leaves of untreated plants, infection levels were assessed on a scale of 0 to 100 percent disease severity. Percent disease control was calculated using the ratio of disease severity on treated plants relative to untreated plants.

[3] = 24 h, 1 Day Protectant, read-out: PUCCRT 1DP (Wheat Brown Rust, 1 Day Protectant)
[4] = 72 h, 3 Day Curative, read-out: PUCCRT 3DC (Wheat Brown Rust, 3 Day Curative)
[5] = 24 h, 1 Day Protectant, read-out: SEPTTR 1DP (Wheat Leaf Blotch, 1 Day Protectant)
[6] = 72 h, 3 Day Curative, read-out: SEPTTR 3DC (Wheat Leaf Blotch, 3 Day Curative)
[7] = 24 h, 1 Day Protectant, read-out: PUCCRT 1DP % Control rating
[8] = 72 h, 3 Day Curative, read-out: PUCCRT 3DC % Control rating
[9] = 24 h, 1 Day Protectant, read-out: SEPTTR 1DP % Control rating
[10] = 72 h, 3 Day Curative, read-out: SEPTTR 3DC % Control rating

Structure (SMILES)	pest or weed control at 121.5 g/ha [1, 3] [%]	pest or weed control at 121.5 g/ha [1, 4] [%]	pest or weed control at 121.5 g/ha [2, 5] [%]	pest or weed control at 121.5 g/ha [2, 6] [%]	pest or weed control at 100 ppm [1, 7] [%]	pest or weed control at 100 ppm [1, 8] [%]	pest or weed control at 100 ppm [2, 9] [%]	pest or weed control at 100 ppm [2, 10] [%]
CC[C@H](NC(=O)c1nccc(OC)c1OC(C)=O)C(=O)O[C@@H](C)[C@H](Oc1cc(F)ccc1F)c1ccccc1 [Example 194]	> 80	< 80	< 80	< 0				
COc1ccnc(C(=O)N[C@@H](C)C(=O)O[C@@H](C)[C@H](Oc2ccccc2)c2ccc(F)cc2F)c1OC(C)=O [Example 251]	> 80	> 80	> 80	> 80				
COc1ccnc(C(=O)N[C@@H](C)C(=O)O[C@@H](C)[C@H](Oc2ccc(C)cc2Cl)c2ccccc2)c1O [Example 149]					> 80	> 80	> 80	> 80
COc1cc(F)ccc1[C@@H](OCC1CC1)[C@H](C)OC(=O)[C@H](C)NC(=O)c1nccc(OC)c1O [Example 289]					> 80	> 80	> 80	> 80
COc1ccnc(C(=O)N[C@@H](C)C(=O)O[C@@H](C)[C@H](Oc2cccc(Cl)c2)c2ccccc2)c1OC(C)=O [Example 203]	> 80	< 80	> 80	> 80				
COc1ccnc(C(=O)N[C@@H](C)C(=O)O[C@@H](C)[C@H](Oc2ccc(C)cc2)c2ccc(F)cc2)c1OCOC(C)=O [Example 249]	> 80	> 80	> 80	> 80				
COc1ccnc(C(=O)N[C@H](C(=O)O[C@@H](C)[C@H](Oc2ccc(C(F)(F)F)cc2)c2ccccc2)C(C)C)c1OC(C)=O [Example 198]	> 80	< 80	> 80	< 0				
COc1ccnc(C(=O)N[C@@H](C)C(=O)O[C@@H](C)[C@H](Oc2cc(F)cc(Cl)c2)c2ccccc2)c1O [Example 122]					> 80	> 80	> 80	> 80
CC[C@H](NC(=O)c1nccc(OC)c1O)C(=O)O[C@@H](C)[C@H](Oc1cc(F)cc(Cl)c1)c1ccccc1 [Example 124]					> 80	> 80	> 80	> 80
COc1ccnc(C(=O)N[C@@H](C)C(=O)O[C@@H](C)[C@H](Oc2ccc(C)cc2)c2ccc(F)cc2)c1OC(C)=O [Example 247]	> 80	> 80	> 80	> 80				
COc1ccnc(C(=O)N[C@@H](C)C(=O)O[C@@H](C)[C@H](Oc2cc(F)ccc2F)c2ccccc2)c1OC(C)=O [Example 192]	> 80	> 80	> 80	< 80				
COc1ccnc(C(=O)N[C@@H](C)C(=O)O[C@@H](C)[C@H](OCC2CC2)c2ccccc2)c1O [Example 113]					> 80	< 80	> 80	> 80
CCOc1cc(F)ccc1[C@@H](Oc1ccccc1)[C@H](C)OC(=O)[C@H](C)NC(=O)c1nccc(OC)c1O [Example 168]					> 80	> 80	> 80	> 80
COc1ccnc(C(=O)N[C@@H](C)C(=O)O[C@@H](C)[C@H](Oc2cc(F)ccc2F)c2ccccc2)c1OCOC(C)=O [Example 191]	> 80	> 80	< 0	< 80				
COc1ccnc(C(=O)N[C@@H](C)C(=O)O[C@@H](C)[C@H](Oc2ccccc2)c2ccc(-c3ccccc3)cc2)c1O [Example 144]					> 80	< 80	> 80	< 80
COc1ccnc(C(=O)N[C@@H](C)C(=O)O[C@@H](C)[C@H](Oc2ccc(C)cc2)c2ccccc2)c1OC(C)=O [Example 246]	> 80	> 80	> 80	> 80				
COc1ccnc(C(=O)N[C@@H](C)C(=O)O[C@@H](C)[C@@H](OCC(C)C)c2ccccc2)c1OCOC(C)=O [Example 226]	> 80	> 80	< 80	< 80				
CC[C@H](NC(=O)c1nccc(OC)c1O)C(=O)O[C@@H](C)[C@H](Oc1cc(F)ccc1F)c1ccccc1 [Example 123]					> 80	< 80	< 80	< 80
COc1ccnc(C(=O)N[C@@H](C)C(=O)O[C@@H](C)[C@H](Oc2ccccc2)c2cccc(-c3ccccc3)c2)c1O [Example 145]					> 80	< 80	> 80	> 80
COc1ccnc(C(=O)N[C@@H](Cc2ccccc2)C(=O)O[C@@H](C)[C@H](Oc2cccc(F)c2)c2ccccc2)c1OCOC(C)=O [Example 189]	> 80	< 80	< 80	< 0				
COc1ccnc(C(=O)N[C@H](C(=O)O[C@@H](C)[C@H](Oc2ccc(C(F)(F)F)cc2)c2ccccc2)C(C)C)c1OCOC(C)=O [Example 197]	> 80	< 80	> 80	< 0				
COc1ccnc(C(=O)N[C@@H](Cc2ccccc2)C(=O)O[C@@H](C)[C@H](Oc2cccc(F)c2)c2ccccc2)c1OC(C)=O [Example 190]	> 80	< 80	< 80	< 0				
COc1ccnc(C(=O)N[C@@H](Cc2ccccc2)C(=O)O[C@@H](C)[C@H](Oc2cccc(F)c2)c2ccccc2)c1O [Example 128]					> 80	< 80	< 0	< 80
COc1cc(F)ccc1[C@@H](OC(=O)C(C)(C)C)[C@H](C)OC(=O)[C@H](C)NC(=O)c1nccc(OC)c1O [Example 290]					> 80	> 80	> 80	> 80
COc1ccnc(C(=O)N[C@@H](C)C(=O)O[C@@H](C)C(Oc2ccc(F)cc2)c2ccc(F)cc2)c1O (stereo partly drawn) [Example 147]					> 80	< 80	> 80	> 80
COc1cc(F)ccc1[C@@H](OC(=O)C1CC1)[C@H](C)OC(=O)[C@H](C)NC(=O)c1nccc(OC)c1O [Example 291]					< 80	< 80	< 0	> 80
COc1cccc([C@@H](Oc2ccccc2)[C@H](C)OC(=O)[C@H](C)NC(=O)c2nccc(OC)c2OCOC(C)=O)c1 [Example 258]	> 80	> 80	> 80	> 80				

From patent US20180002288A1, “USE OF PICOLINAMIDES AS FUNGICIDES” (DOW AGROSCIENCES LLC, priority 2014, published 2018)
